From PMC7763263, “Parameters for Irreversible Inactivation of Monoamine Oxidase” (Molecules, 2020)
Where two headings read alike, the source gives them in different places. Marks after values point to notes of the source that are not given here.

Columns and labels:
human MAO-B [1] = biological target: T1, human MAO-B (Homo sapiens, UniProt P27338); conditions: ratio of IC50 without/with 30 min preincubation; ref Malcomson et al. [40]; cited from earlier work
T1 construct: purchased Sigma-Aldrich (Dorset, UK); host or cells: insect cells (membranes)
T1 sequence (P27338 1-520): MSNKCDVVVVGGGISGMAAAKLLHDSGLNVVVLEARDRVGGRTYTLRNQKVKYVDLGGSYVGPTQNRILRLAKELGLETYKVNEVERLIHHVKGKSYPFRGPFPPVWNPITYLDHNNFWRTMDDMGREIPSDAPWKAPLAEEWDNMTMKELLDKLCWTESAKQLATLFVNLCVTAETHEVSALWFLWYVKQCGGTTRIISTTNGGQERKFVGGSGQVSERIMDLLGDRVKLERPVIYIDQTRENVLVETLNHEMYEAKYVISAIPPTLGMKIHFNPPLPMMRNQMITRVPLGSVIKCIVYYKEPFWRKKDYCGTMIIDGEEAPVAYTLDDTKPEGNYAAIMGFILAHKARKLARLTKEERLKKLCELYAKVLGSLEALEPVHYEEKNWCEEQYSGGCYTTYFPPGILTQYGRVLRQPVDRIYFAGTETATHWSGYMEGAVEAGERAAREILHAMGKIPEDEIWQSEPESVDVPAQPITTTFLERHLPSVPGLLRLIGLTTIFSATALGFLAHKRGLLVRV

MAO-A [2] = biological target: T2, MAO-A (Homo sapiens, UniProt P21397); design: purchased Sigma-Aldrich (Dorset, UK); host or cells: insect cells (membranes); conditions: ratio of IC50 without/with 30 min preincubation; ref Malcomson et al. [40]; cited from earlier work
T2 sequence (P21397 1-527): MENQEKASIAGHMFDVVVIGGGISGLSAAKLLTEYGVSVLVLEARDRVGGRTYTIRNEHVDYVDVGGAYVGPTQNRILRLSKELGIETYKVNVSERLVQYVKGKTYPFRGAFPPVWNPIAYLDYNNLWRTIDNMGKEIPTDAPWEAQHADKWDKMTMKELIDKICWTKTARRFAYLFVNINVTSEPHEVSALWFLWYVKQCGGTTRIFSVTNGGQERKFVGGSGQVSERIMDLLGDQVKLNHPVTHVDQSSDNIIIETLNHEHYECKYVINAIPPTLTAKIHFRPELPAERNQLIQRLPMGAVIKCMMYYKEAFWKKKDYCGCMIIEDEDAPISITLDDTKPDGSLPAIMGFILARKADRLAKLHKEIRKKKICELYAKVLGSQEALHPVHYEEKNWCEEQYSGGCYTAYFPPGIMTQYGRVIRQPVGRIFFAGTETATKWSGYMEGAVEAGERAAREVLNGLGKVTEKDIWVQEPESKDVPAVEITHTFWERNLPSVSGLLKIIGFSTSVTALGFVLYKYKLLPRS

[3] = design: method as in PMID 16848670; conditions: depression; cited from earlier work
MAO = conditions: cited from earlier work
MAO-A [4] = biological target: T2, MAO-A; conditions: read-out: MAO-A Ki Direct; ref Esteban et al. [18]; cited from earlier work
purified human MAO-A = biological target: T3, purified human MAO-A (Homo sapiens, UniProt P21397); assay: Anaerobic spectral kinetics of flavin reduction and adduct formation (stopped-flow / timed spectra); format: biochemical; conditions: for rate of anaerobic reduction of FAD (absorbance decrease at 495 nm) / rate of adduct formation (absorbance increase at 410 nm): purified MAO-A
T3 construct: made in house; host or cells: Saccharomyces cerevisiae
T3 sequence (P21397 1-527): T2 sequence (P21397 1-527)
Protocol: Purified human MAO-A was dialyzed against 50 mM HEPES pH 7.5 for 1 h and concentrated to at least 40 μM before loading into the rapid-mixing device syringes. MAO-A (40 μM) was mixed with an equal volume of 50 mM HEPES pH 7.5 containing excess inactivating compound in the stopped-flow spectrophotometer (Applied Photophysics SX20) at 30 °C. For anaerobic experiments, the system was flushed with 10 mM dithionite before rinsing well with buffer containing 30 mM glucose, 1 U/mL glucose oxidase, and 24 U/mL catalase. Both the MAO-A and the compound to be added were flushed with argon before the addition of 30 mM glucose, 1 U/mL glucose oxidase, and 24 U/mL catalase to ensure anaerobiosis during the experiment. Absorbance changes were measured in triplicate at three wavelengths (410, 456, and 495 nm). The absorbance acquisition rate was set at 1000 Hz for the interval 0–0.5 s and 4 Hz for the interval 0.5–1000 s. The absorbance changes were analyzed using single or double exponential fits in the built-in software as appropriate.
Figure 7 Time courses for absorbance changes in MAO-A incubated anaerobically with propargylamine inactivators.

MAO-A [5] = biological target: T2, MAO-A; assay: Time-dependent inactivation, Kitz-Wilson analysis; format: biochemical; design: purchased Sigma-Aldrich (Dorset, UK); host or cells: insect cells (membranes)
Protocol: (§1) Rates (as relative fluorescence units per second, rfu/s) were analyzed as the log of the fractional activity remaining compared to control against time to obtain kobs.

human MAO-B [6] = biological target: T1, human MAO-B; assay: Time-dependent inactivation, Kitz-Wilson analysis; format: biochemical; conditions: inactivation constant
Protocol: as §1

MAO-A [7] = biological target: T2, MAO-A; assay: IC50 after 30 min preincubation, coupled assay with saturating substrate; format: biochemical; design: purchased Sigma-Aldrich (Dorset, UK); host or cells: insect cells (membranes); conditions: ratio of IC50 without/with 30 min preincubation
Protocol: (§2) The IC50 determined after a fixed incubation time has become a routine way to compare inhibition by new inactivators, although both binding and the rate of inactivator oxidation influence the measurement.
(§3) The direct spectrophotometric assay using purified MAO-A (30–50 nM) was added last to a 1 mL final volume of 50 mM potassium phosphate pH 7.5 containing inhibitor (0–100 μM) and 0.3 mM kynuramine (equivalent to 2× KM). The increase in absorbance was followed at 314 nm in a Shimadzu UV-2101 spectrophotometer. The coupled assay in black 96-well plates (Eppendorf UK Ltd., Stevenage, UK) used tyramine, Ampliflu™ Red (AR), horseradish peroxidase (HRP) and membrane-bound human MAO-A and MAO-B purchased from Sigma-Aldrich (Dorset, UK). Final concentrations were 50 μM AR, 1 U/mL HRP, and 1 nM enzyme. The substrate was tyramine either at 2× KM (0.8 mM for MAO-A or 0.32 mM for MAO-B) for reversible binding or at 1 mM to assess remaining active MAO after incubation with the inactivators.

human MAO-B [8] = biological target: T1, human MAO-B; format: biochemical
Protocol: as §2, §3

MAO-A [9] = biological target: T2, MAO-A; conditions: read-out: MAO-A IC50 AR Assay; without preincubation, tyramine 2× KM (0.8 mM); mean ± SD of 2–4 experiments
Protocol: (§4) The binding of these mechanism-based inhibitors can be assessed by measuring the inhibition without preincubation, adding the enzyme last to the assay mixture with both substrate and inhibitor. […] The IC50 is not an absolute parameter, but rather is a comparative measure that depends on the type of inhibition and the substrate concentration.
as §3
(§5) Ki values were calculated using the global Michaelis–Menten analysis in PRISM from initial rate data for 6 substrate concentrations (tyramine) at 5 inhibitor concentrations.

human MAO-B [10] = biological target: T1, human MAO-B; format: biochemical; conditions: without preincubation, tyramine 2× KM (0.32 mM); mean ± SD of 2–4 experiments; read-out: MAO-B IC50 AR Assay
Protocol: as §4, §3, §5

MAO-A [11] = biological target: T2, MAO-A; assay: Partition ratio by long-term incubation; format: biochemical; design: made in house; host or cells: Saccharomyces cerevisiae; conditions: incubation at 30 °C up to 10 days
human MAO-B [12] = biological target: T1, human MAO-B; conditions: cited from earlier work
MAO-A [13] = biological target: T2, MAO-A; design: purchased Sigma-Aldrich (Dorset, UK); host or cells: insect cells (membranes); method as in PMID 27977122; conditions: cited from earlier work
MAO-A [14] = biological target: T2, MAO-A; assay: Activity remaining or recovered after anaerobic incubation with inactivator; format: biochemical; design: made in house; host or cells: Saccharomyces cerevisiae
Excerpt: MAO-A was made anaerobic by cycling with vacuum and argon. […] After the admission of oxygen to the cuvette, the 420 nm absorbance increased rapidly, accompanied by loss of activity.
In order to find a cause for the 600 nm absorbance, we considered whether oxidation could occur at either carbon adjacent to the amine nitrogen in MAO-A. (MAO-B is inactivated by F2MPA [19], so presumably, the normal allenyl imine product is formed by oxidation at the carbon between the amine and the propargyl group, CαP.) The alternative furfuryl imine product that would result from oxidation at the carbon on the other side of the amine nitrogen (between the amine and the furan ring, CαF) is shown in Scheme 2. Chemical analysis was attempted to detect the putative products of oxidation and molecular modeling to explore the interactions of F2MPA with MAO-A and MAO-B.

[15] = Figure S4, anaerobic stopped-flow, 30 C

## N[C@H]1C[C@@H]1c1ccccc1 (racemic) [Tranylcypromine]
Human MAO-B [1]
  MAO-B Enhancement: 54.7 ^a
MAO-A [2]
  MAO-A Enhancement: 100 ^a
[3]
  patient response rates: over 50%

## N[C@H]1C[C@@H]1c1ccccc1 [1S,2R-trans-2-phenylcyclopropylamine]
MAO
  times more potent in vitro than the other enantiomer: 60 times

## C#CCN(C)Cc1cc2cc(OCCCC3CCN(Cc4ccccc4)CC3)ccc2n1C [ASS234, N-[[5-[3-(1-benzylpiperidin-4-yl)propoxy]-1-methylindol-2-yl]methyl]-N-methylprop-2-yn-1-amine]
MAO-A [4]
  Ki: 53 ± 14 nM
Purified human MAO-A; anaerobic
  rate of anaerobic reduction of FAD (absorbance decrease at 495 nm): 3.36 min⁻¹
MAO-A [5]
  Ki: 45 nM
Human MAO-B [6]
  Ki: 1740 nM
MAO-A [7]
  MAO-A Enhancement: 122
Human MAO-B [8]; read-out: MAO-B IC50 after 30 min preincubation, human MAO in insect cell membranes, saturating substrate
  IC50: 120 ± 20 nM
MAO-A [9]
  IC50: 33 ± 3 nM
Human MAO-B [10]
  IC50: 3200 ± 410 nM

## C#CCN(C)Cc1ccco1 [F2MPA, N-(furan-2-ylmethyl)-N-methylprop-2-yn-1-amine]
Purified human MAO-A; F2MPA 2 mM, MAO-A 22 μM, anaerobic
  time for completion of biphasic decrease in absorbance at 495 nm: more than 21 h
Purified human MAO-A; anaerobic
  rate of anaerobic reduction of FAD (absorbance decrease at 495 nm): 0.0034 ± 0.0009 min⁻¹
MAO-A [11]
  partition ratio: > 1000
Human MAO-B [12]
  MAO-B kinact: 0.61 min⁻¹
  MAO-B kinact/KI: 0.0045 min^−1μM^−1
Human MAO-B [12]; inactivation constant
  Ki: 135000 nM
MAO-A [13]
  MAO-A kinact: 0.087 min⁻¹
  MAO-A kinact/KI: 0.0005 min^−1μM^−1
MAO-A [13]; inactivation constant
  Ki: 187000 nM
MAO-A [14]; MAO-A incubated anaerobically […] with 0.5 mM
  activity retained: 7%
MAO-A [14]; after […] anaerobic incubation with 0.5 mM
  activity restored by overnight aerobic dialysis: 88%

## C#CCN(C)Cc1ccccc1 [Pargyline]
Purified human MAO-A; [15]
  k, 410 nm (adduct): 0.0043 s⁻¹
  k, 485 nm (reduction): 0.0047 s⁻¹
Purified human MAO-A; anaerobic
  rate of adduct formation (absorbance increase at 410 nm): 0.26 ± 0.03 min⁻¹
  rate of anaerobic reduction of FAD (absorbance decrease at 495 nm): 0.28 ± 0.02 min⁻¹
MAO-A [7]
  MAO-A Enhancement: 48
Human MAO-B [8]; ratio of IC50 without/with 30 min preincubation
  MAO-B Enhancement: 292

## NNCCc1ccccc1 [Phenelzine]
[3]
  patient response rates: over 50%

## C#CCN(C)[C@H](C)Cc1ccccc1 [Selegiline, (2R)-N-methyl-1-phenyl-N-prop-2-ynylpropan-2-amine]
Purified human MAO-A; anaerobic
  rate of adduct formation (absorbance increase at 410 nm): 0.016 ± 0.003 min⁻¹
  rate of anaerobic reduction of FAD (absorbance decrease at 495 nm): 0.019 ± 0.002 min⁻¹
MAO-A [7]
  MAO-A Enhancement: 357
